This note sets out measurements from ChEMBL document CHEMBL5038680, “Design, Synthesis, and Evaluation of PD-1/PD-L1 Antagonists Bearing a Benzamide Scaffold” (ACS Med Chem Lett, 2022).

Active and inactive are the calls of the source. The calls are words filed in the database; no cut-off is given here.

In assay [1] the target is T1, Programmed cell death protein 1/Programmed cell death 1 ligand 1 (Homo sapiens, UniProt Q15116+Q9NZQ7). Description: Inhibition of PD-1/PDL-1 (unknown origin) interaction incubated for 15 mins by TR-FRET assay. The assay is classed as protein-complex assay.
T1 sequence (Q15116 whole entry): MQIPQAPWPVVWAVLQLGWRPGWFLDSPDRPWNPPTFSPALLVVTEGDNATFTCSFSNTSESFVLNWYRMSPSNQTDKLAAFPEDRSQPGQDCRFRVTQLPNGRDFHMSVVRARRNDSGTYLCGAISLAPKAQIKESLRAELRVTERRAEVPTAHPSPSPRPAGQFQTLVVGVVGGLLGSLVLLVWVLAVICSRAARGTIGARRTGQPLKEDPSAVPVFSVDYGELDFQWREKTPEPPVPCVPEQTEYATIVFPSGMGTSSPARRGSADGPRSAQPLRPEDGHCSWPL
T1 sequence (Q9NZQ7 whole entry): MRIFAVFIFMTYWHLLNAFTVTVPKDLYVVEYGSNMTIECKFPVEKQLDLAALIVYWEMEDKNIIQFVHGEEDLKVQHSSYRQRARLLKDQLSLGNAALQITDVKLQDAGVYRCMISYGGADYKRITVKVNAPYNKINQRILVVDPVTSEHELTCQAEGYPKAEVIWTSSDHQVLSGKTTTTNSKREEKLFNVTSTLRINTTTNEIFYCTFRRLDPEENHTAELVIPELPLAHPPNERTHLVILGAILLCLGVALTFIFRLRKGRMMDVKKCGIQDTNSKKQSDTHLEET
Assay [2] concerns the target T1, Programmed cell death protein 1/Programmed cell death 1 ligand 1. Description: Inhibition of PD-1/PDL-1 (unknown origin) interaction at 1 uM incubated for 15 mins by TR-FRET assay. In kind it is protein-complex assay. On the technique in general: In TR-FRET formats the signal depends on donor and acceptor labels being close together.
Assay [3] has as its system MDA-MB-231. Description: Cytotoxicity against human MDA-MB-231 cells assessed as cell killing by PBMC cell activation at 1 uM incubated for 24 hrs by LDH assay. The assay is classed as functional, cell-based.
Assay [4] has as its system MDA-MB-231. Description: Cytotoxicity against human MDA-MB-231 cells assessed as cell killing at 2 uM incubated for 24 hrs by LDH assay. The assay is classed as functional, cell-based.

Take `CC(=O)NCCNCc1ccc(NC(=O)c2cccc(-c3ccccc3)c2Cl)nc1F`: the IC50 in assay [1] is 581 nM.

Take `O=C(Nc1ccc(CNCCO)c(F)n1)c1cccc(-c2ccccc2)c1Cl`: in assay [1], half-maximal inhibition (IC50) required 429 nM.

Regarding `CC(=O)NCCNCc1ccc(NC(=O)c2cccc(-c3ccccc3)c2Cl)nc1C(F)(F)F`, the inhibition in assay [2] amounted to 33.8%. Besides, the half-maximal inhibitory concentration (IC50) in assay [1] is more than 1000 nM.

For the molecule `O=C(Nc1ccc(CN2CC[C@H](C(=O)O)C2)cn1)c1cccc(-c2ccc3c(c2)OCCO3)c1F`, in assay [2], the inhibition entry is “inactive”. This molecule also registered an IC50 in assay [1] of more than 1000 nM.

As for `CC(=O)NCCNCc1ccc(NC(=O)c2cccc(-c3cccc(CO)c3)c2Cl)nc1`, the inhibition in assay [2] is 2.5%. In addition, the IC50 in assay [1] was more than 1000 nM.

Take `COc1ccc(-c2cccc(C(=O)Nc3ccc(CNCCNC(C)=O)cn3)c2Cl)cc1`: the inhibition in assay [2] was determined as 8.37%. In assay [1], this molecule displayed an IC50 of more than 1000 nM.

For the molecule `COc1ccc(-c2cccc(C(=O)Nc3ccc(CNCCNC(C)=O)cn3)c2Cl)cc1OC`, the IC50 in assay [1] is more than 1000 nM.

The molecule `O=C(Nc1ccc(CN2CC[C@@H](O)C2)cn1)c1cccc(-c2ccccc2)c1Cl` showed an IC50 in assay [1] of 373 nM.

The molecule `O=C(Nc1ccc(CNC[C@@H](O)CO)cn1)c1cccc(-c2ccccc2)c1Cl` registered an IC50 in assay [1] of 442 nM.

The molecule `CC(=O)NCCNCc1ccc(NC(=O)c2cccc(-c3ccccc3)c2Cl)cc1` came in with an inhibition in assay [2] of 9.86%. The IC50 in assay [1] is more than 1000 nM.

The molecule `COCCNCc1ccc(NC(=O)c2cccc(-c3ccccc3)c2Cl)nc1` displayed an IC50 in assay [1] of 797 nM.

For `CC(=O)NCCNCc1ccc(NC(=O)c2cccc(-c3ccc(S(C)(=O)=O)cc3)c2Cl)nc1`, the inhibition result in assay [2] is “inactive”. Moreover, in assay [1], the IC50 is more than 1000 nM.

In turn, `O=C(Nc1ccc(CN2CCC(O)CC2)cn1)c1cccc(-c2ccccc2)c1Cl` registered an IC50 in assay [1] of 460 nM.

Consider `COc1nc(NC(=O)c2cccc(-c3ccccc3)c2Cl)ccc1CNCCNC(C)=O`, for which the inhibition in assay [2] was found to be 28.2%. The molecule also came in with an IC50 in assay [1] of more than 1000 nM.

`O=C(Nc1ccc(CN2CC(C(=O)O)C2)cn1)c1cccc(-c2ccccc2)c1Cl` yielded an IC50 in assay [1] of 645 nM.

For the molecule `COC(=O)C1CN(Cc2ccc(NC(=O)c3cccc(-c4ccccc4)c3Cl)nc2)C1`, the inhibition in assay [2] is 32.5%. The molecule also registered an IC50 in assay [1] of more than 1000 nM.

Take `CC(=O)NCCNCc1cccc(NC(=O)c2cccc(-c3ccccc3)c2Cl)n1`: in assay [2], the inhibition turned out to be 15.8%. The IC50 in assay [1] is more than 1000 nM.

For the molecule `CC(=O)NCCNCc1ccc(NC(=O)c2cccc(-c3ccccc3)c2Cl)nc1`, in assay [1], the IC50 was found to be 496 nM.

Molecule `O=C(Nc1ccc(CNCCO)c(C(F)(F)F)n1)c1cccc(-c2ccccc2)c1Cl` displayed an inhibition in assay [2] of 41.5%. Moreover, in assay [1], the IC50 was more than 1000 nM.

Turning to `CO[C@H]1CCc2c(-c3cccc(C(=O)Nc4ccc(CNCCNC(C)=O)cn4)c3Cl)cccc21`, the inhibition in assay [2] is 7.75%. This molecule also registered an IC50 in assay [1] of more than 1000 nM.

As for `CC(=O)NCCNCc1ccc(NC(=O)c2cccc(-c3cc(F)c(F)c(F)c3)c2Cl)nc1`, in assay [2], the inhibition came out at 3.52%. Moreover, the IC50 in assay [1] is more than 1000 nM.

Turning to `COC1CN(Cc2ccc(NC(=O)c3cccc(-c4ccccc4)c3Cl)nc2)C1`, the inhibition in assay [2] was 44%. Moreover, the IC50 in assay [1] was more than 1000 nM.

Take `COc1cccc(-c2cccc(C(=O)Nc3ccc(CNCCNC(C)=O)cn3)c2Cl)c1`: the inhibition in assay [2] was 46.1%. In assay [1], this molecule gave an IC50 of more than 1000 nM.

In assay [2], `CC(=O)NCCNCc1ccc(NC(=O)c2cccc(-c3ccc(F)cc3)c2Cl)nc1` came in with an inhibition of 6.96%. The IC50 in assay [1] was more than 1000 nM.

For the molecule `O=C(Nc1ccc(CN2CCCC[C@H]2C(=O)O)cn1)c1cccc(-c2ccccc2)c1Cl`, in assay [2], the inhibition amounted to 41.2%. The IC50 in assay [1] is more than 1000 nM.

Consider `O=C(Nc1ccc(CN2CC[C@H](C(=O)O)C2)cn1)c1cccc(-c2ccc3c(c2)OCCO3)c1`, for which the inhibition result in assay [2] is “inactive”. The IC50 in assay [1] is more than 1000 nM.

Turning to `COc1nc(NC(=O)c2cccc(-c3ccccc3)c2Cl)ccc1CNCCN(C)C`, the inhibition in assay [2] stood at 11.6%. Moreover, in assay [1], the IC50 was more than 1000 nM.

On to `CC(=O)NCCNCc1ccc(NC(=O)c2cccc(-c3ccncc3)c2Cl)nc1`, for which, in assay [2], the inhibition result was “inactive”. This molecule gave an IC50 in assay [1] of more than 1000 nM.

In the case of `O=C(Nc1ccc(CN2CC[C@H](C(=O)O)C2)cn1)c1cccc(-c2ccc3c(c2)OCCO3)c1Cl`, the outcome in assay [3] was Active. Besides, in assay [4], the result was inactive. This molecule came in with an IC50 in assay [1] of 16.2 nM.

For the molecule `CN(C)CCNCc1ccc(NC(=O)c2cccc(-c3ccccc3)c2Cl)nc1`, the inhibition in assay [2] was 27.7%. This molecule yielded an IC50 in assay [1] of more than 1000 nM.

Regarding `CC(=O)NCCNCc1ccnc(NC(=O)c2cccc(-c3ccccc3)c2Cl)c1`, the IC50 in assay [1] was 894 nM.

For the molecule `CC(=O)NCCNCc1ccc(NC(=O)c2cccc(-c3cccc4c3CC[C@@H]4O)c2Cl)nc1`, the inhibition result in assay [2] was “inactive”. In addition, the IC50 in assay [1] is more than 1000 nM.

Consider `O=C(Nc1ccc(CN2CC(O)C2)cn1)c1cccc(-c2ccccc2)c1Cl`, for which half-maximal inhibition in assay [1] (IC50) was put at 528 nM.

The molecule `CC(=O)NCCNCc1ccc(NC(=O)c2cccc(-c3ccccc3)c2C)nc1` yielded an inhibition in assay [2] of 44.2%. The molecule further showed an IC50 in assay [1] of more than 1000 nM.

The molecule `O=C(Nc1ccc(CN2CC[C@H](C(=O)O)C2)cn1)c1cccc(-c2ccccc2)c1Cl` had an IC50 in assay [1] of 173 nM.

With `O=C(Nc1ccc(CNCCO)cn1)c1cccc(-c2ccccc2)c1Cl`, in assay [1], the IC50 stood at 502 nM.

In assay [2], `COC(=O)[C@H]1CCN(Cc2ccc(NC(=O)c3cccc(-c4ccccc4)c3Cl)nc2)C1` showed an inhibition of 50.6%. In assay [1], this molecule yielded an IC50 of more than 1000 nM.

In turn, `CC(=O)NCCNCc1ccc(NC(=O)c2cccc(-c3ccc4c(c3)OCCO4)c2Cl)nc1` displayed an IC50 in assay [1] of 284 nM.

Regarding `COCCOc1cccc(-c2cccc(C(=O)Nc3ccc(CNCCNC(C)=O)cn3)c2Cl)c1`, the inhibition in assay [2] came to 5.29%. The IC50 in assay [1] was more than 1000 nM.

`COc1ccccc1-c1cccc(C(=O)Nc2ccc(CNCCNC(C)=O)cn2)c1Cl` had an inhibition in assay [2] of 5.52%. This molecule also showed an IC50 in assay [1] of more than 1000 nM.

Consider `O=C(Nc1ccc(CN2CC[C@H](C(=O)O)C2)cn1)c1cccc(-c2ccc3c(c2)OCCO3)c1Br`, for which, in assay [1], the IC50 came to 46.5 nM.

In assay [2], `CC(=O)NCCNCc1ccc(NC(=O)c2cccc(-c3ccc(F)c(F)c3)c2Cl)nc1` gave an inhibition of 2.32%. The IC50 in assay [1] is more than 1000 nM.

For orientation: IC50 means the concentration needed to halve the response being measured. A low value points to greater potency. By inhibition is commonly meant the drop in the measured response relative to a control, in per cent.
